Experimental findings from a melting point compilation (Tetko et al.; mined from patent text by program, amines drawn as free bases though some values may be those of a salt) are described below.

In general, melting point refers to the temperature of the solid-liquid transition.

`CCCCc1c(C(=O)c2ccc(OC)cc2)n(C)c2ccc([N+](=O)[O-])cc12` yielded a melting point of 102 °C.

`CC(Cl)(Cl)C(NC(=O)c1ccc(F)cc1)NC(=NC#N)Nc1ccc(Cl)nc1` (stereo not given) yielded a melting point of 197 to 198 °C.

Take `CC(=O)OCCSC(F)(F)C(O)(Cn1cncn1)c1ccc(F)cc1F` (stereo not given): the melting point lay in the range of 79 to 82 °C.

Regarding `CC1(C)Nc2ccccc2NC1=S`, the melting point fell in the range of 140 to 142 °C.

In turn, `CC1(C)C(=O)NC(=O)c2cc(NC(N)=O)ccc21` displayed a melting point of 260 to 264 °C.

The compound `O=C(c1ncc[nH]1)C1CCN(Cc2ccccc2)CC1` returned a melting point of 121 °C.

`CC(C)(C)n1c(=O)n(-c2ccnc(N)c2)c2ccccc21` gave a melting point of 177 to 178 °C.

For `COc1ccc2[nH]c3c(c2c1)C[C@@]1(C)C(=O)N(CCN2CCCC2)C(=O)N1[C@@H]3c1cccc(O)c1` (racemic), the melting point lay in the range of 252 to 255 °C.

`O=c1c2c(CCCCCCc3ccccc3)n[nH]c2c2cccnc2n1-c1ccccc1` came in with a melting point of 150 to 151 °C.

Turning to `O=C(O)c1c[nH]c(Sc2ccc(Cl)c(Cl)c2)c1`, the melting point fell in the range of 156 to 159 °C.

Compound `Nc1ccc(Sc2cc(F)ccc2CC(=O)O)cc1` had a melting point of 151 to 155 °C.

`Cc1cc(Oc2cc(C(F)(F)F)nn2C)nc(Cl)n1` yielded a melting point of 65 °C.

As to `O=C(O)CCC1=C(n2nc(-c3c(-c4ccccc4)nn4ccccc34)ccc2=O)CCCC1`, the melting point is 184 to 185 °C.

Regarding `COC(=O)C(C)C1CCC2C3CC=C4CC(OC(C)=O)CCC4(C)C3CCC12C` (stereo not given), the melting point is 140 to 142 °C.

`O=c1[nH]c2ccc(Cl)cc2c(=O)n1CCCN1CC=C(c2ccc(Cl)cc2)CC1` displayed a melting point of 197 to 198 °C.

In the case of `COc1ccc2cc([C@H](C)C(=O)OCCO)ccc2c1`, the melting point lay in the range of 72 to 73 °C.

In turn, `COC(=O)COc1c(OC)cc(C=O)cc1OC` had a melting point of 99 to 100 °C.

As for `CCc1c(C)c(=O)oc2cc(-c3ccc(C(C)C)cc3)cc(OC)c12`, the melting point is 83 °C.

In turn, `O=c1c2c([nH]n1-c1ccc(Br)cc1)-c1cc(Cl)ccc1SC2` returned a melting point of 257 to 260 °C.

`O=C(CC[C@H](NC(=O)OCc1ccccc1)C(=O)OCc1ccccc1)ON1C(=O)CCC1=O` returned a melting point of 104 to 106 °C.

The compound `CC(CO)(Sc1cc2ccccc2[nH]1)c1ccccc1` (stereo not given) displayed a melting point of 126 to 127 °C.

In turn, `Cc1cncn1CC#CCn1ccn(C)c1=O` registered a melting point of 149 to 153 °C.

`COc1cc2c(cc1-c1cccnc1)-c1c(-c3cncs3)c3c(n1CC2)C(=O)N(C(C)(C)C)CCCC3` had a melting point of 227 to 229 °C.

For `O=C(NC1CCNCC1)N(CCCN1CCC(Cc2ccccc2)CC1)c1ccccc1`, the melting point lay within 85 to 87 °C.

The compound `COc1ccc2nccc(CCC[C@@H]3CCN(CC#Cc4ccccc4F)C[C@@H]3C(=O)O)c2c1` displayed a melting point of 154 °C.

The compound `CC(C)c1ccc(OC(Cc2ccc(OCCNC(=O)c3ccc(-c4ccc(F)cc4)cc3)cc2)C(=O)O)cc1` (stereo not given) displayed a melting point of 192 to 193 °C.

For `COc1ccc2nc3[nH]c(=O)[nH]c3cc2c1`, the melting point was more than 360 °C.

Consider `Nc1ccc2c(CCl)cc(O)nc2n1`, for which the melting point was more than 280 °C.

Turning to `O=C1c2ccccc2C(=O)N1CCCCc1ccco1`, the melting point lay within 61 to 63 °C.

In turn, `Cc1ccc(C(=O)c2ccc(CC#N)n2C)c(Cl)c1` displayed a melting point of 116 to 118 °C.

In turn, `CCCCOCCOc1ccc(-c2ccc(N3CCCCCC3)c(C=C(C)C(=O)O)c2)cc1` returned a melting point of 124 to 126 °C.

In the case of `NC(=O)N1CCN(c2nn(-c3ccc(F)cc3)c3ccccc23)CC1`, the melting point fell in the range of 148 to 150 °C.

Take `CCOC(=O)c1noc(-c2ccc(SC)cc2Cl)c1C(=O)C1CC1`: the melting point is 50 °C.

Compound `COc1cccc([C@H]2O[C@H](CC(=O)NCCCC(=O)O)C(=O)N(CC(C)(C)CO)c3ccc(Cl)cc32)c1OC` yielded a melting point of 111 to 113 °C.

On to `Cc1cc(C(=O)N2Cc3ccc(C(=O)NCc4cccnc4)n3Cc3ccccc32)ccc1I`, for which the melting point fell in the range of 176 to 177 °C.

Compound `O=C(O)[C@@H]1CCc2ccccc2N1C(=O)OCc1ccccc1` registered a melting point of 75 to 79 °C.

Regarding `COc1cccc(OCCCCC(=O)O)c1C=O`, the melting point lay within 99 to 101 °C.

`CC(C)(C)c1cc(NC(=O)Nc2cccc(Oc3nc4ccccc4s3)c2)[nH]n1` gave a melting point of 110 to 111 °C.

`O=C(c1ccc(Cl)cc1)C1(n2cncn2)CC1` showed a melting point of 78 °C.

Take `CCCc1c(C(=O)NCc2ccc3c(Br)c(OCC(=O)OC)ccc3c2)cnn1-c1ccccc1`: the melting point was in the range of 144 to 146 °C.

For the compound `COc1cc(CCC(=O)C2=C(Cl)CCC2)cc(OC)c1OC`, the melting point came out at 93 °C.

The compound `O=S(=O)(c1ccc(Br)cc1)N1CCN(c2ccncc2)CC1` returned a melting point of 199 to 200 °C.

The compound `CCCCCCCCCCCCCCCCCC(=O)n1cc(F)c(=O)n(C(=O)c2ccccc2)c1=O` displayed a melting point of 85 °C.

Take `O=C1CCC(N2Cc3c(OCc4cn5ccccc5n4)cccc3C2=O)C(=O)N1` (stereo not given): the melting point lay in the range of 222 to 224 °C.

Consider `CN1CCN(c2cc3c(cc2F)c(=O)c(C(=O)O)c2ccccn23)CC1`, for which the melting point was 264 to 266 °C.

With `N#Cc1c(-c2ccc(C(F)(F)F)cc2)n(O)c2ccccc12`, the melting point lay in the range of 202 to 203 °C.

Turning to `C[C@@H]1O[C@@]1(Cn1ccnc1)c1ccc(F)cc1F`, the melting point fell in the range of 73 to 76 °C.

The compound `Fc1ccc(C#CCCC#Cc2ccccn2)cc1` gave a melting point of 68 to 69 °C.

In the case of `C=CCSC(c1ccccc1)(c1ccccc1)c1ccccc1`, the melting point lay in the range of 99 to 101 °C.

Take `Cc1cc(C)n(C(=O)CCNS(=O)(=O)c2ccc(Cl)cc2)n1`: the melting point is 101 °C.

The compound `N#Cc1ccc(CNC(c2ccccc2)c2ccccc2)cc1` gave a melting point of 75 °C.

The compound `COc1ccc(CCc2oc3cccc(OC(C)=O)c3c2C)cc1` yielded a melting point of 66 to 69 °C.

`NC(=O)C(c1ccccc1)(c1ccccc1)C1CCN(Cc2ccccc2)C1` (stereo not given) displayed a melting point of 135 to 138 °C.

For `O=S(=O)(OCC(F)(F)F)c1ccc2ccccc2c1`, the melting point is 72.7 °C.

Take `CN(C)C12CN3CN(CN(C3)C1)C2`: the melting point lay in the range of 110 to 111 °C.

Compound `O=C(O)CCCOc1ccc(C2=NNC(=O)CC2)cc1Cl` yielded a melting point of 195 to 197 °C.

For the compound `Cc1ccc(OCCO)cn1`, the melting point was 49 to 51 °C.

Turning to `CN(C)C(=O)NC(=O)C(C)(C)Br`, the melting point is 98 to 100 °C.

Compound `COc1cc(C(C)O)ccc1OCCCC1CNCCC1C(c1ccc(F)cc1)c1ccc(F)cc1` (stereo not given) came in with a melting point of 132 to 135 °C.

In turn, `O=[N+]([O-])c1ccc(-c2nc(-c3ccco3)no2)cc1` returned a melting point of 168 to 170 °C.

Consider `COc1ccc(/C(C)=C/C=C/C(=O)O)cc1`, for which the melting point is 174 to 177 °C.

`O=C(Nc1ccc(Oc2ccnc(N3CCCC3)n2)c2ccccc12)c1cc(F)cc(N2CCOCC2)c1` gave a melting point of 205 to 207 °C.

`CON=C(C(C)=NN=Cc1ccccc1C(=NOC)C(=O)OC)c1ccc(Cl)cc1`: the melting point is 104 to 105 °C.

`CCCN(CCC)Cc1cnc(-c2ncn3c2CN(C)C(=O)c2cc(F)ccc2-3)o1` had a melting point of 123 to 125 °C.

Compound `CCOC(=O)c1ccc2nc[nH]c2c1` gave a melting point of 93 to 94 °C.

In the case of `Cn1cc(S(=O)(=O)Cl)c(=O)c2ccccc21`, the melting point was in the range of 313 to 315 °C.

Turning to `CN1CCC2(CC1)C(=O)N(C)c1ccc(Cl)cc1C(c1ccccc1)N2C` (stereo not given), the melting point lay within 80 to 85 °C.

As for `CC(C)(Oc1ccc(C2CCOCC2)cc1)C(=O)O`, the melting point was 112 °C.

The compound `O=C(CN1CCN(C(=O)OCc2ccc(C(F)(F)F)cc2)CC1)N1CCC2(CC1)Cn1cc([N+](=O)[O-])nc1O2` showed a melting point of 139 to 141 °C.

In turn, `CCc1nc2c(N)nc3ccccc3c2n1CCCNOC` yielded a melting point of 210 to 213 °C.

`CCC(=O)NCCC1=CCc2ccc(OC)cc21` returned a melting point of 61 to 63 °C.

With `CCOC(=O)Nc1nc(C)c(-c2nc3ccccc3c(=O)n2-c2ccc(Cl)cc2)s1`, the melting point was more than 275 °C.

On to `c1ccc(C(N=C2CCCC2)c2ccccc2)cc1`, for which the melting point fell in the range of 96 to 100 °C.

In the case of `Cc1cc(Cl)ccc1Oc1ccc(C(=O)C=CC(=O)O)cc1`, the melting point is 138 to 139 °C.

In the case of `CCc1ccc(-n2c(-c3cccnc3)nc(SC)c(C#N)c2=O)cc1`, the melting point lay in the range of 207 to 209 °C.

Regarding `O=CNNc1ccc([N+](=O)[O-])cc1`, the melting point lay within 183 to 185 °C.

With `CCc1nc2cc(S(N)(=O)=O)c(Cl)cc2n1-c1ccc(CCOC(=O)NS(=O)(=O)c2ccc(C)cc2)cc1`, the melting point is 110 to 115 °C.

Compound `CN1C(=O)N(C)C(=O)C2(CC=C3C(CCC4=Cc5c(cnn5-c5ccc(F)cc5)CC43C)O2)C1=O` (stereo not given) gave a melting point of 188 to 189 °C.

The compound `Cn1cc(-c2cccc(Br)c2)c(=O)c(-c2ccc(Cl)c(Cl)c2)c1` displayed a melting point of 152 to 154 °C.

As for `Nc1cccc(OCCN2CCCCC2)c1`, the melting point came to 115 °C.

For `Cc1cc(COc2ccc(Cl)cc2CN)on1`, the melting point was in the range of 32 to 35 °C.

Regarding `CC(=O)N(CC(C)Cl)c1c(C)cccc1C` (stereo not given), the melting point is 41 to 42 °C.

Compound `NC(=O)CC1=C(n2nc(-c3c(-c4ccccc4)nn4ccccc34)ccc2=O)CCCC1` registered a melting point of 204 to 205 °C.

Turning to `Nc1ncnc2c1c(-c1cc(O)cc(F)c1)nn2Cc1oc2cccc(F)c2c(=O)c1-c1cccc(F)c1`, the melting point was in the range of 136 to 138 °C.

For the compound `CS(=O)(=O)c1ccc(C(CC2CCCC2)C(=O)O)cc1C(F)(F)F` (stereo not given), the melting point fell in the range of 100 to 102 °C.

`CC(=O)Nc1ccc(C(O)CO)cn1` (stereo not given) had a melting point of 184 to 185 °C.

For the compound `CC(NC(Nc1ccc(Cl)cc1)=C(C#N)S(C)(=O)=O)C(C)(C)C` (stereo not given), the melting point was in the range of 160 to 162 °C.

`c1ccc(-c2ccc(Nc3nnc(Cc4ccncc4)c4ccccc34)cc2)cc1` displayed a melting point of 189 to 191 °C.

In turn, `COc1ccccc1C1(C(C)C)C(=O)N(C)c2ccccc21` (stereo not given) had a melting point of 113 to 115 °C.

In turn, `CCOC(=O)C1=C(C(OCC)OCC)NC(C)=C(C(=O)OCCCl)C1c1cccc([N+](=O)[O-])c1` (stereo not given) showed a melting point of 96 to 97 °C.
